Source: paper PMC2920453 (Chemistry & biology, 2010)
pEC50, pIC50: −log10 of the molar value.

What was measured:
[1] = biological target: FLT1 (Homo sapiens, UniProt P17948); experiment: Z'-lyte kinase assay; format: biochemical
[2] = tested on: iFGFR1-activated MCF10A cells; experiment: 3D Matrigel culture morphogenesis; format: cell-based; conditions: 3D culture
[3] = tested on: wild-type MCF10A cells; experiment: Growth of wild-type MCF10A cells; format: cell-based
[4] = tested on: wild-type Ba/F3 cells; experiment: cells; conditions: Mus musculus, BaF3, 48 h
[5] = tested on: RT4; experiment: cells; conditions: Homo sapiens, RT-4, 72 h
[6] = tested on: SNU-16; experiment: cells; conditions: Homo sapiens, SNU-16, 72 h
[7] = tested on: G-401; experiment: cells; conditions: Homo sapiens, G-401, 72 h
[8] = tested on: SBC-3; experiment: cells; conditions: Homo sapiens, SBC-3, 72 h
[9] = tested on: A2.1; experiment: cells; conditions: Homo sapiens, 72 h
[10] = tested on: A2780; experiment: cells; conditions: Homo sapiens, A2780, 72 h
[11] = tested on: FU97; experiment: cells; conditions: Homo sapiens, Fu97, 72 h
[12] = tested on: G-402; experiment: cells; conditions: Homo sapiens, G-402, 72 h
[13] = tested on: R082-W-1; experiment: cells; conditions: Homo sapiens, 72 h
[14] = tested on: LU99A; experiment: cells; conditions: Homo sapiens, LU-99A, 72 h
[15] = tested on: RD-ES; experiment: cells; conditions: Homo sapiens, 72 h
[16] = tested on: PA-1; experiment: cells; conditions: Homo sapiens, PA-1, 72 h
[17] = tested on: JAR; experiment: cells; conditions: Homo sapiens, 72 h
[18] = tested on: H520; experiment: cells; conditions: Homo sapiens, NCI-H520, 72 h
[19] = tested on: VM-CUB1; experiment: cells; conditions: Homo sapiens, VM-CUB-1, 72 h
[20] = tested on: NCI-H1703; experiment: cells; conditions: Homo sapiens, NCI-H1703, 72 h
[21] = tested on: JHH-7; experiment: cells; conditions: Homo sapiens, JHH7, 72 h
[22] = tested on: TOV-112D; experiment: cells; conditions: Homo sapiens, TOV112D, 72 h
[23] = tested on: A2780; experiment: Survival pathways immunoblot; conditions: 200 nM, 6 hours
[24] = tested on: SBC-3; experiment: Survival pathways immunoblot; conditions: 200 nM, 6 hours
[25] = tested on: KATO-III; experiment: Pro-survival signaling; conditions: 200 nM, 6 hours
[26] = tested on: SNU-16; experiment: Pro-survival signaling; conditions: 200 nM, 6 hours
[27] = tested on: Hec-1B cells; experiment: Endometrial carcinoma cell proliferation; conditions: wild type FGFR2; 4 days
[28] = tested on: WT iFGFR1 MCF10A cells; experiment: iFGFR1-dependent MCF10A proliferation; conditions: Homo sapiens, MCF-10A, 48 h
[29] = biological target: FGFR1 (Homo sapiens, UniProt P11362); conditions: ref Kammasud et al., 2007; cited from earlier work
[30] = biological target: V561M FGFR1 (Homo sapiens, UniProt P11362, V561M); conditions: 10 μM, 1 hour drug treatment, HEK293
[31] = tested on: KATO III; experiment: cells; conditions: Homo sapiens, 72 h
[32] = tested on: STS-0421; experiment: cells; conditions: Homo sapiens, 72 h
[33] = tested on: MFE-296 cells; experiment: Endometrial carcinoma cell proliferation; conditions: activating FGFR2 mutation; 4 days
[34] = tested on: AN3CA cells; experiment: Endometrial carcinoma cell proliferation; conditions: activating FGFR2 mutation; 4 days

FGFR1, sequence (P11362 22-822): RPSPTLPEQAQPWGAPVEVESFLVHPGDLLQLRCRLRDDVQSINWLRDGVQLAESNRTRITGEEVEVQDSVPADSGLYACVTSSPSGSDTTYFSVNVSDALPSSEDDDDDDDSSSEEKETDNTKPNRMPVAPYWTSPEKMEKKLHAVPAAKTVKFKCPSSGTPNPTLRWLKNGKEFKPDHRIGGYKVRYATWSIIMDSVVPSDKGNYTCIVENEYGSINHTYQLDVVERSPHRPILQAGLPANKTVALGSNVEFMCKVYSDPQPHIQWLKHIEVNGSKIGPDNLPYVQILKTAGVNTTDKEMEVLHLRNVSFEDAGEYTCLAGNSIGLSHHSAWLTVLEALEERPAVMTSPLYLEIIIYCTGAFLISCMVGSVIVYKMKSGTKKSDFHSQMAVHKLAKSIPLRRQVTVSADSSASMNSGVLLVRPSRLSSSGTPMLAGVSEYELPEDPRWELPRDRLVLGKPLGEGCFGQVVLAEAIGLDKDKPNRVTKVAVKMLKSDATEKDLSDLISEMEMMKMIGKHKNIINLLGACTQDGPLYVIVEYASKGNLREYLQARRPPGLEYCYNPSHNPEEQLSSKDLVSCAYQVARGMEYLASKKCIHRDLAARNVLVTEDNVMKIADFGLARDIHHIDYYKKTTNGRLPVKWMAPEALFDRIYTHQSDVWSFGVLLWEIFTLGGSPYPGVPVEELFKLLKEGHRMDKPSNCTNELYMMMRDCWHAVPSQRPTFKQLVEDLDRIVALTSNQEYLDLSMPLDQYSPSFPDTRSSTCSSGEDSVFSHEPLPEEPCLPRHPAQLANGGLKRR
FLT1, sequence (P17948 27-1338): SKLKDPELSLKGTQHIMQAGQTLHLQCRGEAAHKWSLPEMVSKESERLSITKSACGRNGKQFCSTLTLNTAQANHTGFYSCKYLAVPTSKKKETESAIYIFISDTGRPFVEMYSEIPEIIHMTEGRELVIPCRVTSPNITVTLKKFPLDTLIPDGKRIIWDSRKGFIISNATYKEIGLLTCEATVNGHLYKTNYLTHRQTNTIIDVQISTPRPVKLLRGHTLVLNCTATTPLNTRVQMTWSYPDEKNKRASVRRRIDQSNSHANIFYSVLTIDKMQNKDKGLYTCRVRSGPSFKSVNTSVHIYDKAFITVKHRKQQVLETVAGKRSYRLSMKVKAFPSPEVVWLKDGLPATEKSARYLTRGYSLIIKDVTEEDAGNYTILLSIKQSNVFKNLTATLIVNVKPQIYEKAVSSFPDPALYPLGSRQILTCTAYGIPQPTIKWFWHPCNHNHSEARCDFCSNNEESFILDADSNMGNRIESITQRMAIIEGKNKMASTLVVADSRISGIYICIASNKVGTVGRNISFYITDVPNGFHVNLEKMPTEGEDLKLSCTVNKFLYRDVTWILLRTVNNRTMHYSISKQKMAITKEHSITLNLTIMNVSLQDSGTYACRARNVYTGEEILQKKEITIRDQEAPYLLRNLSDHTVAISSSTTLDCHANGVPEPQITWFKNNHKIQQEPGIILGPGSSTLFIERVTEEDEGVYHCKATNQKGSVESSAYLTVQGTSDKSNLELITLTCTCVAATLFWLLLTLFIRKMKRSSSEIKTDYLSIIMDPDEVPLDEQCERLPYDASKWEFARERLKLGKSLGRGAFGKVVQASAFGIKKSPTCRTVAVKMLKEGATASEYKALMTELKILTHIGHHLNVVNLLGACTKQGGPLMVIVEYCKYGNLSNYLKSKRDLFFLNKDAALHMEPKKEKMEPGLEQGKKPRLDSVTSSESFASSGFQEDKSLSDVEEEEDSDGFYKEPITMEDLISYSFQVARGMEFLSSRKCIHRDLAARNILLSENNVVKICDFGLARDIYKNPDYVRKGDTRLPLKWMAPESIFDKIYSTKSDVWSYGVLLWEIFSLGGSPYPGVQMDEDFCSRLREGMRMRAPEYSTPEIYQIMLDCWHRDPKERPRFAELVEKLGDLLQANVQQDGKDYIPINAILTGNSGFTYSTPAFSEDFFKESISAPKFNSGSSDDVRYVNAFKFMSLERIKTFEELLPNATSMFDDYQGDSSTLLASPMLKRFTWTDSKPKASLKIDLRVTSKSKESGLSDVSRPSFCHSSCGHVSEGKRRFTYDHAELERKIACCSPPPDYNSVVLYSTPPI
V561M FGFR1, sequence (P11362 22-822 V561M): as the sequence (P11362 22-822) above, with V540M counted along it

Row | Structure (SMILES) | effect on growth of wild-type MCF10A cells [3] | pEC50 [5] | pEC50 [6] | pEC50 [7] | pEC50 [8] | pEC50 [9] | pEC50 [10] | pEC50 [11] | pEC50 [12] | pEC50 [13] | pEC50 [14] | pEC50 [15] | pEC50 [16] | pEC50 [17] | pEC50 [18] | pEC50 [19] | pEC50 [20] | pEC50 [21] | pEC50 [22] | sensitivity in cell proliferation assay [27] | other results
1 | C=CC(=O)Nc1cccc(CN2C(=O)N(c3c(Cl)c(OC)cc(OC)c3Cl)Cc3cnc(NCCCCN(CC)CC)nc32)c1 [FIIN-1] | neither FIIN-1 nor PD173074 affected the growth | 7.15 | 7.52 | 6.85 | 7.10 | 6.64 | 6.66 | 6.19 | 5.78 | < 5.30 | < 5.30 | 5.64 | 5.34 | < 5.30 | 5.35 | < 5.30 | < 5.30 | < 5.30 | < 5.30 | not sensitive | pIC50 [1]: 6.18; effect on abnormal morphogenesis induced by iFGFR1 activation ([2]; 20 nM): prevented; pEC50 [4]: < 5.00; effect on cell survival and survival pathways [23]: inhibited; effect on cell survival and survival pathways [24]: inhibited; effect on pro-survival Akt and Erk1/2 pathways [25]: potently suppressed; effect on pro-survival Akt and Erk1/2 pathways [26]: potently suppressed; pEC50 [28]: 8.57
2 | COc1cc(OC)cc(-c2ccc3c(c2)NC(=O)/C3=C\c2[nH]c(C)c(CCC(=O)O)c2C)c1 [NP603] |  |  |  |  |  |  |  |  |  |  |  |  |  |  |  |  |  |  |  |  | pIC50 [29]: 6.40
3 | CCN(CC)CCCCNc1ncc2cc(-c3cc(OC)cc(OC)c3)c(NC(=O)NC(C)(C)C)nc2n1 [PD173074, reference compound] | neither FIIN-1 nor PD173074 affected the growth | 7.30 | 6.92 | 6.68 | 6.49 | 6.47 | 6.09 | 5.94 | 5.61 | 5.60 | 5.52 | < 5.30 | < 5.30 | < 5.30 | < 5.30 | < 5.30 | < 5.30 | < 5.30 | < 5.30 | not sensitive | effect on abnormal morphogenesis induced by iFGFR1 activation ([2]; 1 μM): prevented; inhibition of autophosphorylation of FGFR1-V561M [30]: incapable of inhibiting; pEC50 [31]: 7.66; pEC50 [32]: 6.92; EC50 (sensitivity in cell proliferation assay) [33]: sub-micromolar; EC50 (sensitivity in cell proliferation assay) [34]: sub-micromolar
